According to US20030171400A1, “Heterocyclic side chain containing metalloprotease inhibitors” (priority 2000, published 2003):

How the values were obtained:
Format in all cases: in vivo
[1] = system: human subject suffering from osteoarthritis; assay: Example B: capsule treatment of a subject suffering from osteoarthritis; details: capsule containing 70 mg daily for 5 years, 90 kg human
Procedure: A capsule for oral administration, according to the present invention, is made comprising:
A human subject weighing 90 kg (198 lbs.), suffering from osteoarthritis, is treated by a method of this invention. Specifically, for 5 years, a capsule containing 70 mg of the compound of Example 3 is administered daily to said subject.

[2] = system: human subject suffering from rheumatoid arthritis; assay: Example A: tablet treatment of a subject suffering from rheumatoid arthritis; details: tablet with 15 mg compound, three tablets per day orally for 2 years, 60 kg human
Procedure: A tablet composition for oral administration, according to the present invention, is made comprising:
A human subject weighing 60 kg (132 lbs), suffering from rheumatoid arthritis, is treated by a method of this invention. Specifically, for 2 years, a regimen of three tablets per day is administered orally to said subject.

asthma sufferer = assay: Example E: inhalation aerosol for asthma; details: 5.0% w/v inhalation aerosol, 0.01 mL sprayed into the mouth while inhaling
Procedure: An inhalation aerosol composition, according to the present invention, is made comprising: An asthma sufferer sprays 0.01 mL via a pump actuator into the mouth while inhaling.

## CC(C)(C)OC(=O)N1CCC(C(NS(=O)(=O)c2ccc(Oc3ccccc3)cc2)C(=O)O)CC1 (stereo not drawn) [Example 3, 4-[Carboxy-(4-phenoxy-benzenesulfonylamino)-methyl]-piperidine-1-carboxylic acid tert-butyl ester]
[1]
  erosion/fibrillation of the articular cartilage via x-ray, arthroscopy and/or MRI at the end of treatment: no further advancement of erosion/fibrillation of the articular cartilage

## COCCOC(=O)N1CCC(C(NS(=O)(=O)c2ccc(-c3ccc(OC)cc3)cc2)C(=O)O)CC1 (stereo not drawn) [Example 31, 4-[Carboxy-(4′-methoxy-biphenyl-4-sulfonylamino)-methyl]-piperidine-1-carboxylic acid 2-methoxy-ethyl ester]
[2]
  patient examination at the end of the treatment period (inflammation, mobility, pain): reduced inflammation, and improved mobility without concomitant pain

## COc1ccc(-c2ccc(S(=O)(=O)NC3(C(=O)O)CCNCC3)cc2)cc1 [Example 56, 4-(4′-Methoxy-biphenyl-4-sulfonylamino)-piperidine-4-carboxylic acid]
Asthma sufferer
  asthma symptoms: Asthma symptoms are diminished
